# Measurements: PMC10901819, “Structure-function analysis of the cyclic β-1,2-glucan synthase from Agrobacterium tumefaciens” (Nature Communications, 2024)
# Biological target: T1, Cgs (CgsWT) (Agrobacterium fabrum, UniProt Q7CWD9)
# T1 construct: gene chvB; full length, C-terminal 3xFlag from chromosomal insertion; purified from native A. tumefaciens C58 membranes in DDM; nanodiscs (cryo-EM) or proteoliposomes (activity); subpopulation of dimers
# Assay: cryo-EM structure
# Format: binding
# Settings: GT active site; sample incubated with 5 mM UDP-Glc, 1.5 mM MgCl2, pH 7.5, 22 °C; putative UDP density
structure (smiles),measurement,value
O=c1ccn([C@@H]2O[C@H](COP(=O)(O)OP(=O)(O)O)[C@@H](O)[C@H]2O)c(=O)[nH]1 [UDP],cryo-EM structure,The CgsWT model contains an additional density docked at the active site
